Data: article PMC12615753, “Glutathione as a taste modulator: molecular mechanisms of interaction with umami and sweet taste receptors” (Food Chemistry: Molecular Sciences, 2025)

Biological target: T1, hTAS1R1 L223A/rTAS1R3 (Homo sapiens, UniProt Q7RTX1, L223A)
T1 construct: UniProtKB number Q7RTX1–1); expressed in transfected cells; host or cells: HEK293T/17 (ATCC CRL-11268)
T1 sequence (Q7RTX1 21-841 L223A): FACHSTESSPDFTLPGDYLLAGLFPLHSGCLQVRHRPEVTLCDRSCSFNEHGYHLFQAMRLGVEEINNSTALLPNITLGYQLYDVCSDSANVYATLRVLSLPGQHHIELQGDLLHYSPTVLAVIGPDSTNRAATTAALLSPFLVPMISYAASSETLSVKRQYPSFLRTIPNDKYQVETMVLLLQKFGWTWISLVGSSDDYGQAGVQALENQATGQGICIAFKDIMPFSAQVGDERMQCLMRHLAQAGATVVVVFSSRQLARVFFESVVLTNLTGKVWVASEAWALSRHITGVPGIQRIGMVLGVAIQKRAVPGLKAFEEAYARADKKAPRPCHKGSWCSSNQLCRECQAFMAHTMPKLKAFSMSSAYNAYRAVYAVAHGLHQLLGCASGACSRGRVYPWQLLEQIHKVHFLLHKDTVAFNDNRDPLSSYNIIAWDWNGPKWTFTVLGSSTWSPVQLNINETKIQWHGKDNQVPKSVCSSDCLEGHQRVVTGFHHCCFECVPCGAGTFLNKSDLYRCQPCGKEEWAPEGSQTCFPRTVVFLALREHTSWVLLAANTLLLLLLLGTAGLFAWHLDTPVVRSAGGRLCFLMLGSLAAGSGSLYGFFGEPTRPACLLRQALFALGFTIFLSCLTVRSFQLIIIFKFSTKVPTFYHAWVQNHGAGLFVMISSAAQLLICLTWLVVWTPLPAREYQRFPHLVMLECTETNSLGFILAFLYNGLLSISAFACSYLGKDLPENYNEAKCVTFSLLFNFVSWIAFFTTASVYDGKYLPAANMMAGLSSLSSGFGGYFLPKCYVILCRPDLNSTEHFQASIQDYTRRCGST
T1 sequence (Q923K1 21-858 partner): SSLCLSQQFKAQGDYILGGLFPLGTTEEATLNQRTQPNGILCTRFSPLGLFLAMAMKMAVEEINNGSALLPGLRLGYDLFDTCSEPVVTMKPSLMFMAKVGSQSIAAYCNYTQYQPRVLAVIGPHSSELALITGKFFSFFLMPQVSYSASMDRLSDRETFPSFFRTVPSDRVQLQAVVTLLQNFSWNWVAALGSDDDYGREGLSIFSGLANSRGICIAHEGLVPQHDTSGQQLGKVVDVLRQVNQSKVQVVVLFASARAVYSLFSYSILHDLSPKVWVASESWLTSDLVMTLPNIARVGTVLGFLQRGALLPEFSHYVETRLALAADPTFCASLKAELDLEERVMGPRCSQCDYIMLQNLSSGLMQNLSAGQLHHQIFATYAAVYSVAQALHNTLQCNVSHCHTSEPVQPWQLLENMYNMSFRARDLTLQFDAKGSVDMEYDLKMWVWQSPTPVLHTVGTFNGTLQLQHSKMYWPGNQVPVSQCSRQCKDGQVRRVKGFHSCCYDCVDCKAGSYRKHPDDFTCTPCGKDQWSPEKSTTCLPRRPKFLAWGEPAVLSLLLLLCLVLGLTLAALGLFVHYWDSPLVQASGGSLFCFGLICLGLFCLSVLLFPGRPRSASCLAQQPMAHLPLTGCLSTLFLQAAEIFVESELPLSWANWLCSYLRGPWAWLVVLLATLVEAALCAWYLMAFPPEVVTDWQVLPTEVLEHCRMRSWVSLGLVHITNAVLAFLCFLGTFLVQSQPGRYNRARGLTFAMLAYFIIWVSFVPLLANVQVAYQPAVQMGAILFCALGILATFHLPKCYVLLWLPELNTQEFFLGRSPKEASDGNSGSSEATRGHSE
Test: Calcium assay, hTAS1R1 mutant co-expressed with rTAS1R3
Type: cell-based, rat
Source text: Chimeric Gα proteins, such as Gα16Gust44, Gα16Gi3 or Gα15i2, are widely used in the functional expression of TAS1R receptors ([Backes et al., 2015]; [Suess et al., 2015]; [Toda et al., 2021], [Toda et al., 2013], [Toda et al., 2018]; [Zhang et al., 2008]). Chimeric Gα15i2 (([Toda et al., 2013]), Supplementary data) was generated by replacing the last five residues of the C-terminal tail of rat Gα15i2 (EINLL) (UniProt number G3V6N8; https://www.uniprot.org/uniprot/) with the counterpart sequence from human GNAI2 (DCGLF) (UniProt number P04899-1) and cloning into the pcDNA3.1/Hygro vector (Invitrogen, Thermo Fisher Scientific, Illkirch, France) between the HindIII and NotI restriction sites, resulting in the plasmid pcDNA3.1-Gα15i2. Chimeric Gα16Gust44 construct have already been reported ([Raliou et al., 2011]). Briefly, Gα16Gust44 was generated by replacing the C-terminal of Gα16 with the C-terminal 44 residues of gustducin. As previously described, hTAS1R1 was amplified from human fungiform papillae cDNA and cloned and inserted into pcDNA3 (Invitrogen), generating pcDNA3-TAS1R1-WT (wild-type) ([Raliou et al., 2011]). […] The cDNA coding region of rTAS1R3 was synthesized with optimized-codon usage for human expression (Genewiz) and was cloned and inserted into the mammalian pcDNA4/myc-HisA (Invitrogen) expression vector between the EcoRI and NotI restriction sites, resulting in the plasmid pcDNA4-rTAS1R3. […] The sequence integrity of all the plasmid constructs was verified via automated DNA sequencing (Genewiz).
The hTAS1R1 mutants were co-expressed with the rTAS1R3 subunit in HEK293 cells. […] As a control, the functionality of the mutated receptors was checked after stimulation with S807 (Fig. S8), which interacts with TAS1R1-TMD ([Zhang et al., 2008]).

N[C@@H](CCC(=O)O)C(=O)O [L-Glu, L-glutamic acid, reference compound]
response to the agonist alone, vs WT (L223A): increased the amplitude

N[C@@H](CCC(=O)N[C@@H](CS)C(=O)NCC(=O)O)C(=O)O [GSH, γ-L-glutamyl-L-cysteinyl-glycine]
EC50: 2.32 ± 0.308 mM
effect of the added compound (1 mM) on the response to L-Glu (L223A): synergy was observed
response to the agonist alone, vs WT (L223A): significantly increased the initial amplitude
Max ∆F/F0 (L223A, GSH): 1.71 ± 0.09
R1 = mutant EC50/WT EC50 (L223A, GSH): 0.9
